Legend:
[1] = Example 1: effect of oral ketoconazole (400 mg OD or 200 mg BID) on plasma pharmacokinetics of a 300 mg single dose of mifepristone, fasted; assay type: in vivo, human; details: Keto 200 mg BID vs 400 mg OD
Text: This study was an open-label study in healthy male subjects.
Healthy male volunteers between the ages of 18 to 45 years of age with a body mass index (BMI) ranging between 19 and 32 kg/m2 and a weight of at least 60 kg (132 lbs) were enrolled. Subjects had no clinically significant abnormal findings on the physical examination, ECG, blood pressure, heart rate, medical history, or clinical laboratory results during screening. The QTc interval at screening was less than 450 msec.
In cohort 1, six subjects received ketoconazole 400 mg OD for 14 days.
Subjects remained in the clinic on Days 2 and 3 to receive 400 mg OD oral ketoconazole fasted, and for safety evaluation and collection of blood pharmacokinetic (PK) samples. Subjects were discharged from the clinic on Day 4 following administration of 400 mg OD oral ketoconazole fasted, and returned to the clinic the mornings of Days 5 through 13 to receive 400 mg OD oral ketoconazole fasted.
In cohort 2, six subjects received ketoconazole 200 mg BID for 14 days. […] All 12 subjects completed the study. […]
Subjects in both cohorts returned to the study center on Day 15 for safety monitoring, and completion of the Termination Visit procedures, followed by discharge from the study. Safety was assessed by spontaneously reported adverse events, physical examinations, and routine clinical laboratory tests. […]

[2] = Example 2: effect of a 400 mg single dose of ketoconazole on PK of an 8-day regimen of 300 mg or 600 mg OD mifepristone after moderate fat breakfast; assay type: in vivo, human; details: for increase in AUC0-24, Day 8 relative to Day 7 / increase in Cmax, Day 8 relative to Day 7: 400 mg ketoconazole on Day 8
Description: This was an open-label study in healthy male subjects. […] The 400 mg single dose of ketoconazole was given to all subjects on day 8.
METHODOLOGY: Twelve subjects were enrolled, six in Cohort 1 and 6 in Cohort 2.
Subjects were discharged on Day 11.
Subjects were discharged on Day 11. Subjects in both cohorts returned to study center on Day 13 for safety monitoring, collection of the 120-hour PK draw, and completion of the Termination Visit procedures, followed by discharge from the study. To the extent possible, any adverse events deemed study drug-related and that were ongoing at the time of discharge from the study were followed-up to resolution or until a determination was made that the unresolved event was stable.
DIAGNOSIS AND MAIN […] FOR INCLUSION: Healthy male volunteers between the ages of 18 to 45 years of age with a body mass index (BMI) ranging between 19 and 32 kg/m2 and a weight of at least 60 kg (132 lbs) were enrolled. Subjects had no clinically significant abnormal findings on the physical examination, ECG, blood pressure, heart rate, medical history, or clinical laboratory results during screening. The QTc interval at screening was less than 450 msec.
DURATION OF TREATMENT: Up to a total of 28 days, including up to 2 weeks screening, dosing on Days 1-8, safety observation, and PK sample collection through Day 13.
Additionally, comparisons were made between the PK results of cohort 1 and 2. Pharmacokinetic parameters Cmax, T½ and total AUC were calculated for plasma concentrations of ketoconazole following the single dose on Day 8. Descriptive statistics (count, mean, median, standard deviation, minimum, maximum, and % coefficient of variation) were provided. Ketoconazole concentrations were listed and summarized. GM means of Cmax and total AUC were compared for the single dose in this study to the combined data of reported 400 mg single doses of ketoconazole of healthy subjects from the literature.

[3] = Example 3: safety (adverse events, laboratory tests, vital signs, ECGs); assay type: in vivo, human
Description: A single dose of ketoconazole was administered on Day −1.

[4] = clinical; details: male, human, in vivo
Description: This study was conducted in accordance with Good Clinical Practice under the guidance of an Institutional Review Board and in accordance with applicable local legal and regulatory requirements.
KORLYM® was supplied in 300 mg tablets for oral administration. Three or four tablets were administered once daily (OD) to provide either the 900 mg or 1200 mg per day dose.
Itraconazole was supplied • in 100 mg capsules for oral administration. Two capsules were administered once daily (OD) to provide the 200 mg per day dose.
All drug administrations were oral and were given after the morning meal.
The inclusion criteria required, among other criteria, that the subjects be healthy male subjects between the ages of 18 and 65, weigh more than 110 pounds, and have a body mass index (BMI) of 18 to 32 kg/m^2. The design included a Screening Period of up to 3 weeks (subjects were screened at a time between days −21 to −1 prior to the first treatment period), three 14-day treatment periods, and a Follow-Up (FU) Period of 14 days for safety observation.
Subjects meeting the inclusion criteria (n=22) were administered drug daily and blood samples were taken on the days indicated below during Periods 1-3 and on day 43 of the follow-up period.
Subjects presented at the Clinical Research Unit (CRU) after an 8-hour overnight fast, then predose PK samples were taken and other evaluations (predose electrocardiograms (ECGs), plasma cortisol and ACTH, serum chemistry tests) were performed. […] On the specific days indicated above, additional blood draws for determining 24-hour PK profiles were performed.
Pharmacokinetic (PK) parameters measured and computed included AUC (area under the concentration−time curve), AUC0-24 (AUC values from time 0 to 24 hours postdose), Cmax (maximum concentration), and Css (average steady-state concentration, calculated as AUC0-24/24).

[5] = MIFE 300 mg/d with vs without 400 mg Keto
[6] = MIFE 600 mg/d with vs without 400 mg Keto
[7] = MIFE 600 vs 300 mg/d, no ketoconazole
[8] = MIFE 600 vs 300 mg/d, with 400 mg Keto
[9] = mifepristone 600 mg OD Days 1-17, ketoconazole 200 mg BID Days 13-17

**Q.** For CC#C[C@]1(O)CC[C@H]2[C@@H]3CCC4=CC(=O)CCC4=C3[C@@H](c3ccc(N(C)C)cc3)C[C@@]21C [Mifepristone, 11β-(4-dimethylaminophenyl)-17β-hydroxy-17α-(1-propynyl)-estra-4,9-dien-3-one], which “Mean Ratio AUCtotal (C2/C1)” value ([1]; geometric mean ratio (AUCinf in text)) is on record?
**A.** Its value is 1.05.

**Q.** What about the “Mean Ratio Cmax (C2/C1)” value ([1]; geometric mean ratio) of the same compound?
**A.** Its value is 1.15.

**Q.** What about the “increase in AUC0-24, Day 8 relative to Day 7” value ([2]; Cohort 1, 300 mg OD) of the same compound?
**A.** Its value is 25%.

**Q.** And the “increase in Cmax, Day 8 relative to Day 7” value ([2]; Cohort 1, 300 mg OD)?
**A.** The value was 20%.

**Q.** What about the “increase in AUC0-24, Day 8 relative to Day 7” value ([2]; Cohort 2, 600 mg OD) of the same compound?
**A.** The value was 28%.

**Q.** And the “increase in Cmax, Day 8 relative to Day 7” value ([2]; Cohort 2, 600 mg OD)?
**A.** Its value is 39%.

**Q.** And the “AUC0-24 greater at 600 mg OD than at 300 mg OD” value ([2]; Day 8 with 400 mg ketoconazole)?
**A.** The value was 52%.

**Q.** What about the “Cmax greater at 600 mg OD than at 300 mg OD” value ([2]; Day 8 with 400 mg ketoconazole) of the same compound?
**A.** Its value is 65%.

**Q.** And the “half-life greater at 600 mg OD than at 300 mg OD” value ([2]; Day 8 with 400 mg ketoconazole)?
**A.** The value was 13%.

**Q.** What about the “Mean Ratio AUCτ, C1 Day 8/Day 7” value [2, 5] of the same compound?
**A.** The value was 1.25.

**Q.** What about the “Mean Ratio Cmax, C1 Day 8/Day 7” value [2, 5] of the same compound?
**A.** The value was 1.19.

**Q.** And the “Mean Ratio AUCτ, C2 Day 8/Day 7” value [2, 6]?
**A.** The value was 1.28.

**Q.** And the “Mean Ratio Cmax, C2 Day 8/Day 7” value [2, 6]?
**A.** The value was 1.39.

**Q.** What about the “Mean Ratio AUCτ, Day 7 C2/C1” value [2, 7] of the same compound?
**A.** Its value is 1.48.

**Q.** And the “Mean Ratio Cmax, Day 7 C2/C1” value [2, 7]?
**A.** Its value is 1.42.

**Q.** And the “Mean Ratio AUCτ, Day 8 C2/C1” value [2, 8]?
**A.** The value was 1.52.

**Q.** What about the “Mean Ratio Cmax, Day 8 C2/C1” value [2, 8] of the same compound?
**A.** Its value is 1.65.

**Q.** And the “discontinuation due to AEs” value ([3]; during the mifepristone-only treatment period (moderate hypertension; moderate bilateral rash))?
**A.** Its value is “Two subjects discontinued due to AEs”.

**Q.** And the “subjects with at least one TEAE” value ([3]; during the mifepristone/ketoconazole treatment period)?
**A.** Its value is 57.1%.

**Q.** And the “subjects with at least one TEAE” value ([3]; during treatment with mifepristone alone (600 mg OD))?
**A.** The value was 55.6%.

**Q.** What about the “deaths or SAEs” value [3, 9] of the same compound?
**A.** Its value is “No deaths or SAEs were reported”.

**Q.** What about the “severe TEAEs” value [3, 9] of the same compound?
**A.** Its value is “No severe TEAEs were reported”.

**Q.** What about the AUC(0-t) ([4]; 900 mg) of the same compound?
**A.** Its AUC(0-t) is 59600 ng·h/mL.

**Q.** What about the Cmax, Geometric Means ([4]; 900 mg) of the same compound?
**A.** Its Cmax, Geometric Means is 3550 ng/mL.

**Q.** And the “AUC(0-24), Geometric Means” value ([4]; 1200 mg)?
**A.** Its value is 67,700.

**Q.** And the Cmax ([4]; 1200 mg)?
**A.** Its Cmax is 4360 ng/mL.

Reference: patent US12097210B2, “Concomitant administration of glucocorticoid receptor modulators and CYP3A inhibitors” (Corcept Therapeutics, Inc., priority 2017, dated 2024)
